In paper PMC6680510, “Benzotriazine Di-Oxide Prodrugs for Exploiting Hypoxia and Low Extracellular pH in Tumors” (Molecules, 2019):
Values joined by “and” are separate entries in the source; they are usually repeats but may differ in a detail not shown here. Equal entries are not always repeated. Where two headings read alike, the source gives them in different places.

Legend:
[1] = tested on: UT-SCC-74B cells; experiment: IC50 assay (inhibition of proliferation, 4 h exposure, SRB); format: cell-based; conditions: UT-SCC-74B, UT-SCC-74B; for IC50: Homo sapiens, 4 h
Protocol: Cells were seeded in 96-well plates (SiHa or FaDu 1500 cells/well, UT-SCC-74B 800 cells/well) in 100 μL. After incubation for 2 h, the drugs were added in 50 μL of the same titrated medium at 3× the final concentration to duplicate the wells. After a further 4 h the plates were checked for drug precipitation using a phase contrast microscope, then drugs were removed by aspirating and washing with the standard (pH 7.4) medium, then aspirating again and adding 150 μL of the medium. Cultures were then grown for 5 days before staining with sulphorhodamine B and measuring absorbance, with the estimation of IC50 values using 4-parameter logistic regression, as previously carried out.
The medium and plasticware was equilibrated in the chamber for 3 days prior to use. In the anoxia experiments, FaDu cells were plated in poly-L-lysine coated plates (Corning Cat # 356461) to improve attachment. […]
Footnotes: a Number of experiments. b Anoxic cytotoxicity ratio = oxic IC50/anoxic IC50. c pH
cytotoxicity ratio = IC50 at pHe 7.4/ IC50 at pHe 6.5. d Overall ratio = oxic IC50 pHe 7.4 / anoxic IC50 pHe
6.5. Values are means and errors are SEM. For ratios, the errors are root mean square SEM. […]

[2] = tested on: SiHa and SiHa/POR cells; experiment: IC50 in SiHa versus SiHa/POR cultures under anoxia; format: cell-based; conditions: 4 h under anoxia, pHe 7.4
Protocol: The lack of effect of POR over-expression on the reductive metabolism of the BTO acids in intact cells led us to compare the cytotoxicities of SN30000 (2), 4a, and 7a in SiHa/POR, and the parental line, under anoxia (Figure 6).
Drug exposure was for 4 h under anoxia, at pHe 7.4, with regrowth under aerobic conditions for 5 days before staining with SRB. Values are means and SEM for the two experiments, each with triplicate cultures at each drug concentration. TEXT PRINTED IN THE PICTURE: Cmpd 2: Ratio 6.75 ± 0.20 | Cmpd 4a: Ratio 3.40 ± 0.22 | Cmpd 7a: Ratio 2.67 ± 0.46

[3] = tested on: MDCK-II cells with forced expression of BCRP or Pgp; experiment: IC50 under anoxia in cells with forced expression of efflux transporters; conditions: MDCK-II cell lines under anoxia, preliminary experiments
Protocol: expression of BCRP or Pgp.
Cells were seeded at 300 cells/well in DMEM with 10% FBS in 96 well plates in an
anaerobic chamber, allowed to attach for 2 h then exposed to drugs for 4 h under anoxia. Cells were
then washed with fresh medium and grown for 5 days under aerobic conditions before staining with
SRB. Values are mean ± SEM from 2 separate experiments.

[4] = Solubility in AlphaMEM + 5% FBS, pH 7.4; conditions: culture medium (AlphaMEM + 5% FBS), pH 7.4, plasma or biological fluid, kinetic from dmso stock
[5] = tested on: SiHa cells; experiment: Cellular uptake in stirred aerobic single cell suspensions (HPLC, 3H-mannitol correction)
Protocol: In these experiments, cell pellets were collected by centrifugation and ^3H-mannitol was used as a cell-excluded marker to enable correction for the entrapped extracellular medium.
Log-phase cultures were dissociated with trypsin/EDTA, followed by the addition of the medium with DNAase I (Sigma DN-25) at 100 μg/mL for 5 min at 37 °C to minimize clumping. The cell pellets were collected by centrifugation and resuspended in αMEM with 5% FBS at pH 7.4 or 6.5 to 2 × 10^6 cells/mL. Samples (12 mL) were equilibrated with magnetic stirring at 37 °C under flowing humidified 5% CO2/air or N2 (50–100 mL/min), as previously described [86]. After equilibration for 60 min, the compounds were added in 50 μL of DMSO. The samples (5 mL) were withdrawn 5 and 60 min later, where the cell pellets were then collected by centrifugation and 4 mL of the supernatant was discarded. The pellets were resuspended in the remaining 1 mL, transferred to microcentrifuge tubes containing 7 μL ^3H-mannitol (740 GBq/mmol, American Radiolabeled Chemicals Inc., St. Louis, MO) as an extracellular marker, and then centrifuged (11,000g × 30s). The supernatant was removed and frozen at −80 °C (extracellular samples) and the tubes were centrifuged again, and any remaining medium was carefully removed. Ice-cold MeOH (80 μL) was added to the pellets which were disrupted by pipetting and stored at −80 °C (intracellular samples). When these were thawed for HPLC analysis (Section 4.12), the volume of extracellular water trapped in the pellets was determined by the scintillation counting (PerkinElmer Tri-Carb B2910TR Liquid Scintillation) of 25 μL of each extracellular and intracellular sample in 3 mL of Emulsifier-Safe™ scintillation cocktail (PerkinElmer). The extracellular volume in each intracellular sample was used to correct the intracellular drug concentration as previously described [87].
The samples were analyzed using an Agilent 1200 HPLC with a diode array absorbance detector and autosampler maintained at 4 °C (Agilent Technologies). The frozen samples were thawed, then centrifuged (11,000g × 5 min), and then extracellular samples were injected directly (typically 20 μL), while for the intracellular samples 30 μL was mixed 1:1 with αMEM and 50 μL was injected. […] All calibration curves were linear (R^2 > 0.999). The column was an Agilent ZORBAX Eclipse (XDB-C18, 5u, 2.1 × 150 mm, Agilent Technologies) with a flow rate of 0.4 mL/min. For SN30000 (2), the mobile phase was a mixture of 80% MeCN/water v/v (A), and a 45 mM formate buffer at a pH 4.5, eluting with a linear gradient of 5–100% A over 18 min. The same method was used for the BTO acids, except for 4a, where the aqueous mobile phase pH was reduced to 3.5.
Values are mean and SEM for 3 replicates. ND: Not detected.

[6] = One-electron reduction potentials by pulse radiolysis; format: physicochemical; conditions: pH 7.0, equilibrium with redox indicator shown in square brackets
In short: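 Redox equilibria at pH 7.0 (2.5 mM phosphate) established within 50 μs between one-electron reduced compound and viologen references MV^2+, TQ^2+ or V21^2+, generated by 4 MeV linac pulse radiolysis with time-resolved optical absorption. E^0′ vs NHE derived via Nernst equation from equilibrium constants, corrected for ionic strength.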

[7] = tested on: SiHa cells; experiment: IC50 assay modified for chronic hypoxia (oxia, hypoxia, anoxia); format: cell-based; conditions: for IC50: Homo sapiens
Protocol: There are relatively few viable cells in tumors at O2 concentrations as low as in the above anoxic experiments. In addition, extensive changes in gene expression occur under chronic exposure to intermediate O2 concentrations (chronic hypoxia), including the expression of proteins that regulate pHi. […] Therefore, oxic and anoxic exposures were also tested in these same experiments. The 24 h adaptation to hypoxia had little effect on the subsequent growth of the cultures at either pHe value (Figure S6).
To minimize problems with poor cell attachment under chronic hypoxia, the drugs were added from a 3-fold dilution series made in a separate plate, rather than by serial dilution in the plates containing the cells. In addition, the drugs were removed after the 4 h exposure by centrifuging the plates (200g × 5 min) prior to each aspiration. The same modifications were used for the oxic drug exposures in these experiments.

[8] = tested on: FaDu cells; experiment: IC50 assay (inhibition of proliferation, 4 h exposure, SRB); format: cell-based; conditions: for IC50: Homo sapiens, 4 h
[9] = tested on: SiHa cells; experiment: Effect of phenylpyruvate (MCT pan-inhibition) on cytotoxicity under anoxia; conditions: anoxic SiHa cells
Protocol: Effect of phenylpyruvate (PPV, 100 or 500 μM) on proliferation of SiHa cells following 4 h
exposure under anoxia to PPV alone (A) or with cmpd 4a at pHe 7.4 (B) or pHe 6.5 (C). 3000 cells/well
were seeded in 96 well plates, and IC 50 values determined as in Figure S6. Each data point is mean ±
SEM for three replicate cultures in the same experiment.

SMILES: O=C(O)CCc1n[n+]([O-])c2ccccc2[n+]1[O-] [Compound 4a, 3-(2-Carboxyethyl)benzo[e][1,2,4]triazine 1,4-Dioxide]
- IC50 ([1]; pHe 6.5, 4 h, 20% O2, read-out: Oxic IC50): 297 ± 74 µM
- IC50 ([1]; pHe 6.5, 4 h, <0.01% O2, read-out: Anoxic IC50): 97.6 ± 12.3 µM
- IC50 ([1]; pHe 7.4, 4 h, 20% O2, read-out: Oxic IC50): 863 ± 66 µM
- IC50 ([1]; pHe 7.4, 4 h, <0.01% O2, read-out: Anoxic IC50): 225 ± 26 µM
- TME ratio (oxic IC50 pHe 7.4/anoxic IC50 pHe 6.5) [1]: 8.84 ± 1.30
- PCR Anoxic (IC50 at pHe 7.4/IC50 at pHe 6.5) ([1]; anoxic): 2.31 ± 0.39 and 2.9
- PCR oxic (IC50 at pHe 7.4/IC50 at pHe 6.5) ([1]; oxic): 2.91 ± 0.76 and 2.3
- ACR (oxic IC50/anoxic IC50) ([1]; pHe 6.5): 3.04 ± 0.85
- ACR (oxic IC50/anoxic IC50) ([1]; pHe 7.4): 3.84 ± 0.53
- IC50 ratio SiHa / SiHa/POR (fold lower IC50 in POR cell line) [2]: 3.40 ± 0.22 and 3.4
- Effect of overexpression of BCRP or Pgp efflux transporters on sensitivity [3]: no effect
- solubility [4]: 17.1 mM
- Uptake (Ci/Ce) at 4 °C relative to 37 °C ([5]; SiHa cell suspensions, data not shown): undetectable
- Ci/Ce, pHe 6.5 Obs 5 min ([5]; aerobic SiHa suspensions, pHe 6.5, 5 min): <0.1
- Ci/Ce, pHe 6.5 Obs 60 min ([5]; aerobic SiHa suspensions, pHe 6.5, 60 min): <0.1
- Ci/Ce, pHe 7.4 Obs 5 min ([5]; aerobic SiHa suspensions, pHe 7.4, 5 min): <0.1
- Ci/Ce, pHe 7.4 Obs 60 min ([5]; aerobic SiHa suspensions, pHe 7.4, 60 min): <0.1
- E^0′ one-electron reduction potential [6]: −399 mV and −399 ± 7 [MV^2+] mV
- PCR (IC50 for pHe 7.4/IC50 for pHe 6.5) ([7]; 0.2% O2): 1.39 ± 0.19
- PCR (IC50 for pHe 7.4/IC50 for pHe 6.5) ([7]; 20% O2): 1.98 ± 0.93
- PCR (IC50 for pHe 7.4/IC50 for pHe 6.5) ([7]; <0.01% O2): 1.86 ± 0.59
- IC50 ([7]; 0.2% O2 (24 h before and during 4 h exposure), pHe 6.5): 308 ± 1 µM
- IC50 ([7]; 0.2% O2 (24 h before and during 4 h exposure), pHe 7.4): 428 ± 57 µM
- IC50 ([7]; 4 h, 20% O2, pHe 6.5, 4 h): 707 ± 321 µM
- IC50 ([7]; 4 h, 20% O2, pHe 7.4, 4 h): 1400 ± 162 µM
- IC50 ([7]; 4 h, <0.01% O2, pHe 6.5, 4 h): 160 ± 45 µM
- IC50 ([7]; 4 h, <0.01% O2, pHe 7.4, 4 h): 298 ± 44 µM
- ACR (IC50 for 20% O2/IC50 for <0.01% O2) ([7]; pHe 6.5): 4.42 ± 2.36
- HCR (IC50 for 20% O2/IC50 for 0.2% O2) ([7]; pHe 6.5): 2.30 ± 1.04
- ACR (IC50 for 20% O2/IC50 for <0.01% O2) ([7]; pHe 7.4): 4.70 ± 0.88
- HCR (IC50 for 20% O2/IC50 for 0.2% O2) ([7]; pHe 7.4): 3.28 ± 0.58
- TMR (oxic IC50 pHe 7.4/anoxic IC50 pHe 6.5) [8]: 9.36 ± 1.68
- IC50 ([8]; pHe 6.5, 4 h, anoxic, read-out: Anoxic IC50): 142 ± 21 µM
- IC50 ([8]; pHe 6.5, 4 h, oxic, read-out: Oxic IC50): 507 ± 27 µM
- IC50 ([8]; pHe 7.4, 4 h, anoxic, read-out: Anoxic IC50): 325 ± 18 µM
- IC50 ([8]; pHe 7.4, 4 h, oxic, read-out: Oxic IC50): 1330 ± 136 µM
- PCR Anoxic (IC50 at pHe 7.4/IC50 at pHe 6.5) ([8]; anoxic): 2.29 ± 0.36
- PCR oxic (IC50 at pHe 7.4/IC50 at pHe 6.5) ([8]; oxic): 2.62 ± 0.30
- ACR (oxic IC50/anoxic IC50) ([8]; pHe 6.5): 3.58 ± 0.56
- ACR (oxic IC50/anoxic IC50) ([8]; pHe 7.4): 4.08 ± 0.48
- Effect of pan-inhibition of MCT by phenylpyruvate on sensitivity [9]: no effect
